# Measurements: ChEMBL document CHEMBL5729526, “Substituted imidazolidin-2-one derivatives as PRMT5 inhibitors” (2023)
# Molecular target: Protein arginine N-methyltransferase 5 (Homo sapiens, UniProt O14744)
# Test: TR-FRET Assay: Protein arginine methyltransferase 5 (PRMT5) is a type II arginine methyltransferase that catalyze mono- and symmetric […] on arginine residues of histone or non-histone proteins in presence of S-adenosylmethionine (AdoMet or SAM) a cofactor responsible for donating the methyl group. PRMT5 is reported to be overexpressed in several human cancers. To identify compounds that inhibit the PRMT5 and decrease its activity, a TR-FRET based assay has been established. Time-resolved fluorescence resonance energy transfer (TR-FRET) HTS assays are homogeneous proximity assays where the interaction of two dye-labeled binding partners is detected by the energy transfer between a donor and an acceptor dye, and the subsequent light emission by the acceptor dye. PRMT5 catalyzes Histone H4 peptide [1-16] which is biotin tagged to the Lysine amino acid at carboxyl end, in presence of S-adenosyl-1-methionine (SAM) to methylate the peptide. The antibody specific to mono methylated H4 peptide (H4R3) with Ig conjugate binds to the methylated peptide, indirectly binding to the Europium lanthanide. SureLight Allophycocyanin-Streptavidin binds to the biotin tag of the peptide, therefore accepting the energy transferred from the Europium lanthanide. This energy transfer between Europium to SureLight Allophycocyanin is a direct measure of the activity/inhibition of the PRMT5 enzyme. […]
# Sequence of Protein arginine N-methyltransferase 5 (O14744 whole entry): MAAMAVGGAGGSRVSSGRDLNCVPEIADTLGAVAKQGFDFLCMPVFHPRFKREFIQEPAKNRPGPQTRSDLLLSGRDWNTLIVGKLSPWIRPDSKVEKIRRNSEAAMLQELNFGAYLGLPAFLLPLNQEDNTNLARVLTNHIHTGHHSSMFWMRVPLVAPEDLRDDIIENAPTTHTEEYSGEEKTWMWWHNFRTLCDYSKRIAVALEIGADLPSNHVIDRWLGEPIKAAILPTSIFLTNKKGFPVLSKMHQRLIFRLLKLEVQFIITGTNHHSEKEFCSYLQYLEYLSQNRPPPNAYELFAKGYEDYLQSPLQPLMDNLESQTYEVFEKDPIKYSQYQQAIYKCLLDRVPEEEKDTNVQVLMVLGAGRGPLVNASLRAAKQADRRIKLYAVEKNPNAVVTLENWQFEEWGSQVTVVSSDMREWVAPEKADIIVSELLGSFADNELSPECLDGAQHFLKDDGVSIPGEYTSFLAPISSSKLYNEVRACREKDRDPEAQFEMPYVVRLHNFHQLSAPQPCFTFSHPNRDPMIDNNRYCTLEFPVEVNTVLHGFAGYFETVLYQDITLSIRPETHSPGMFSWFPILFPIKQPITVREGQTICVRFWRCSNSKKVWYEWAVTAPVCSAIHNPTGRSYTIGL
smiles,measurement,value
O=C1N(Cc2cnc(-c3cccnc3)cn2)CCN1C[C@H](O)CN1CCc2ccccc2C1,IC50,53 nM
